Laboratory results: patent US9980943B2, “Methods of treating muscular dystrophy” (BOARD OF REGENTS OF THE NEVADA SYSTEM OF HIGHER EDUCATION, …, priority 2013, dated 2018)

Columns and labels:
Type in all cases: cell-based, mouse
[1] = test system: α7 integrin (LacZ reporter in α7βgal+/− myoblasts); assay: Myoblast α7+/LacZ integrin FDG assay (Burkin assay in myoblasts, 96-well); conditions: α7+/LacZ myoblasts, 96-well
[2] = test system: β-galactosidase in CMV-LacZ C2C12 myotubes; assay: CMV-LacZ secondary screen in C2C12 myotubes (β-Gal stabilizing assay); conditions: C2C12 CMV-LacZ myotubes, fold relative to DMSO
Outline: (§1)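 CMV-LacZ C2C12 line (clonal, FDG-screened); myoblasts/myotubes dosed 0.5–40 μM (0.5, 1, 5, 10, 20, 40 μM); n=2 per point; β-gal stabilization read-out.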

[3] = test system: β-galactosidase in CMV-LacZ C2C12 myoblasts; assay: CMV-LacZ secondary screen in C2C12 myoblasts (β-Gal stabilizing assay); conditions: CMV-LacZ C2C12 myoblasts
Outline: as §1

[4] = test system: α7 integrin (LacZ reporter in α7+/LacZ myotubes); assay: Myotube α7 integrin FDG assay (Burkin assay in myotubes, 96-well); conditions: myotubes

Row | SMILES | Burkin Assay in Myoblasts, signal relative to DMSO ([1]; 0.5 uM) | Burkin Assay in Myoblasts, signal relative to DMSO ([1]; 1 uM) | Burkin Assay in Myoblasts, signal relative to DMSO ([1]; 5 uM) | Burkin Assay in Myoblasts, signal relative to DMSO ([1]; 10 uM) | Burkin Assay in Myoblasts, signal relative to DMSO ([1]; 20 uM) | Burkin Assay in Myoblasts, signal relative to DMSO ([1]; 40 uM) | CMV-LACZ in Myotubes, signal relative to DMSO ([2]; 0.5 uM) | CMV-LACZ in Myotubes, signal relative to DMSO ([2]; 1 uM) | CMV-LACZ in Myotubes, signal relative to DMSO ([2]; 5 uM) | CMV-LACZ in Myotubes, signal relative to DMSO ([2]; 10 uM) | CMV-LACZ in Myotubes, signal relative to DMSO ([2]; 20 uM) | CMV-LACZ in Myotubes, signal relative to DMSO ([2]; 40 uM) | CMV-LACZ in Myoblasts (β-galactosidase activity relative to DMSO) ([3]; 0.5 uM) | CMV-LACZ in Myoblasts (β-galactosidase activity relative to DMSO) ([3]; 1 uM) | CMV-LACZ in Myoblasts (β-galactosidase activity relative to DMSO) ([3]; 5 uM) | CMV-LACZ in Myoblasts (β-galactosidase activity relative to DMSO) ([3]; 10 uM) | CMV-LACZ in Myoblasts (β-galactosidase activity relative to DMSO) ([3]; 20 uM) | CMV-LACZ in Myoblasts (β-galactosidase activity relative to DMSO) ([3]; 40 uM) | Burkin Assay in Myotubes, α7 integrin LacZ reporter signal relative to DMSO ([4]; 0.5 uM) | Burkin Assay in Myotubes, α7 integrin LacZ reporter signal relative to DMSO ([4]; 1 uM) | other results
1 | COC(=O)c1ccc(N=Nc2ccccc2)cc1 [MLS001005712-01] | 1.1047 | 1.17 | 0.926 | 0.8783 | 0.8763 | 0.764 | 1.0684 | 1.0379 | 0.9623 | 0.8075 | 1.1133 | 1.3167 | 1.0188 | 1.2385 | 0.8934 | 0.9125 | 1.0241 | 1.0230 | 0.8704 | 1.173 | Burkin Assay in Myotubes, α7 integrin LacZ reporter signal relative to DMSO ([4]; 5 uM): 0.9472; Burkin Assay in Myotubes, α7 integrin LacZ reporter signal relative to DMSO ([4]; 10 uM): 0.939; Burkin Assay in Myotubes, α7 integrin LacZ reporter signal relative to DMSO ([4]; 20 uM): 0.7885; Burkin Assay in Myotubes, α7 integrin LacZ reporter signal relative to DMSO ([4]; 40 uM): 0.7405
2 | CC(C)(C)NC(=O)NC(=O)CN1CCN(Cc2ccccc2)CC1 [MLS001006302-01] | 1.123 | 0.9303 | 0.9535 | 1.172 | 0.973 | 0.9414 | 1.0229 | 0.9143 | 0.9398 | 1.0122 | 0.9010 | 0.9720 | 0.9343 | 0.7663 | 0.8911 | 1.0767 | 0.9502 | 0.7646 | 0.9822 | 0.9373 | Burkin Assay in Myotubes, α7 integrin LacZ reporter signal relative to DMSO ([4]; 5 uM): 1.039; Burkin Assay in Myotubes, α7 integrin LacZ reporter signal relative to DMSO ([4]; 10 uM): 1.212; Burkin Assay in Myotubes, α7 integrin LacZ reporter signal relative to DMSO ([4]; 20 uM): 0.7835; Burkin Assay in Myotubes, α7 integrin LacZ reporter signal relative to DMSO ([4]; 40 uM): 1.078
3 | CCOC(=O)c1cc(-c2cccs2)nc2c1c(C)nn2-c1ccccn1 [MLS001006516-01] | 1.097 | 1.134 | 0.8796 | 0.7932 | 0.6928 | 0.4802 | 0.9581 | 0.9257 | 0.9283 | 0.8542 | 0.9032 | 0.9484 | 1.0038 | 0.8858 | 0.9829 | 0.9076 | 0.4956 | 0.6589 | 0.9261 | 0.8714 | Burkin Assay in Myotubes, α7 integrin LacZ reporter signal relative to DMSO ([4]; 5 uM): 0.9257; Burkin Assay in Myotubes, α7 integrin LacZ reporter signal relative to DMSO ([4]; 10 uM): 0.9085; Burkin Assay in Myotubes, α7 integrin LacZ reporter signal relative to DMSO ([4]; 20 uM): 0.7127; Burkin Assay in Myotubes, α7 integrin LacZ reporter signal relative to DMSO ([4]; 40 uM): 0.7127
4 | COc1ccccc1C(=O)OCc1ccc2sc(C)nc2c1 [MLS001006798-01] | 1.191 | 0.9282 | 1.133 | 1.008 | 1.118 | 1.016 | 1.0419 | 0.9648 | 1.2236 | 1.0267 | 0.9953 | 1.0976 | 0.8334 | 1.0326 | 1.1509 | 1.0189 | 0.9622 | 0.8263 | 0.9345 | 1.042 | Burkin Assay in Myotubes, α7 integrin LacZ reporter signal relative to DMSO ([4]; 5 uM): 1.06; Burkin Assay in Myotubes, α7 integrin LacZ reporter signal relative to DMSO ([4]; 10 uM): 0.8906; Burkin Assay in Myotubes, α7 integrin LacZ reporter signal relative to DMSO ([4]; 20 uM): 0.9746; Burkin Assay in Myotubes, α7 integrin LacZ reporter signal relative to DMSO ([4]; 40 uM): 0.8886
5 | CCCC(=O)OCC(=O)c1[nH]c(C)c(C(C)=O)c1C [MLS001007892-01] | 1.127 | 1.037 | 1.016 | 1.23 | 0.7225 | 0.4983 | 1.1673 | 0.9291 | 1.0066 | 0.9543 | 1.2170 | 1.0540 | 0.9338 | 0.8108 | 1.0511 | 1.1495 | 0.6390 | 0.4953 | 0.9046 | 1.013 | Burkin Assay in Myotubes, α7 integrin LacZ reporter signal relative to DMSO ([4]; 5 uM): 0.9742; Burkin Assay in Myotubes, α7 integrin LacZ reporter signal relative to DMSO ([4]; 10 uM): 1.075; Burkin Assay in Myotubes, α7 integrin LacZ reporter signal relative to DMSO ([4]; 20 uM): 0.8343; Burkin Assay in Myotubes, α7 integrin LacZ reporter signal relative to DMSO ([4]; 40 uM): 0.9888
6 | CCOC(=O)c1cc(C(=O)OCC)c(=O)[nH]c1SCc1ccccc1 [MLS001008109-01] | 0.8481 | 0.78 | 1.002 | 0.8626 | 0.826 | 0.8306 | 1.0621 | 1.0168 | 0.9839 | 0.9289 | 1.0756 | 1.0600 | 0.9542 | 1.1138 | 0.9228 | 1.2178 | 0.8730 | 0.7619 | 0.9247 | 0.9146 | Burkin Assay in Myotubes, α7 integrin LacZ reporter signal relative to DMSO ([4]; 5 uM): 1.182; Burkin Assay in Myotubes, α7 integrin LacZ reporter signal relative to DMSO ([4]; 10 uM): 0.9335; Burkin Assay in Myotubes, α7 integrin LacZ reporter signal relative to DMSO ([4]; 20 uM): 0.8264; Burkin Assay in Myotubes, α7 integrin LacZ reporter signal relative to DMSO ([4]; 40 uM): 0.6103
